For one compound, IC50 results are on record in ChEMBL document CHEMBL2412962, “Human acidic mammalian chitinase as a novel target for anti-asthma drug design using in silico screening” (Bioorg Med Chem, 2013).

Usually IC50 stands for the concentration that gives 50% inhibition.

This assay addresses Acidic mammalian chitinase (Homo sapiens, UniProt Q9BZP6). Put plainly: Inhibition of His-tagged recombinant human acidic mammalian chitinase expressed in Escherichia coli Rosetta-gami 2 (DE3) using 4MU-(GlcNAc)2 as substrate assessed as production of 4-methylumbelliferone measured every 5 mins by fluorescence assay.

Structures are written as SMILES.

Chain of Acidic mammalian chitinase (Q9BZP6 whole entry): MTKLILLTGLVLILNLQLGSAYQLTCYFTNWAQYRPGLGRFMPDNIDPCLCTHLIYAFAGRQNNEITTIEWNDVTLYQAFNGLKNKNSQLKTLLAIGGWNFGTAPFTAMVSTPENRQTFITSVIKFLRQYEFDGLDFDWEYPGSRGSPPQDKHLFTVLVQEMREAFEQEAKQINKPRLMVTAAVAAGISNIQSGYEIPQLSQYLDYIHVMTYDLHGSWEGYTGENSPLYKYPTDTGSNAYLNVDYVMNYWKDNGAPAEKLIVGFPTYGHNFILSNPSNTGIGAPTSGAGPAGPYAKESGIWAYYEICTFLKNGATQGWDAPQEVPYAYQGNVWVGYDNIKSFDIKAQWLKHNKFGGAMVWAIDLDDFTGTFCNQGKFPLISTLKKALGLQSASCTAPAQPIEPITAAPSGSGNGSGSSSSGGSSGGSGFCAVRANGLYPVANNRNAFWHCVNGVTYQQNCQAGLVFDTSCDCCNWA

As for `CN=C(S)NNC(=O)c1oc2nc(-c3ccccc3)cc(C)c2c1N`, the IC50 amounted to 30 µM.
